Test results taken from publication PMC7724564 (Science Bulletin, 2020).

Molecular target: human angiotensin-converting enzyme 2 (ACE2) (Homo sapiens, UniProt Q9BYF1)
Assay: biolayer interferometry
Assay type: binding

Chain of human angiotensin-converting enzyme 2 (ACE2) (Q9BYF1 18-740): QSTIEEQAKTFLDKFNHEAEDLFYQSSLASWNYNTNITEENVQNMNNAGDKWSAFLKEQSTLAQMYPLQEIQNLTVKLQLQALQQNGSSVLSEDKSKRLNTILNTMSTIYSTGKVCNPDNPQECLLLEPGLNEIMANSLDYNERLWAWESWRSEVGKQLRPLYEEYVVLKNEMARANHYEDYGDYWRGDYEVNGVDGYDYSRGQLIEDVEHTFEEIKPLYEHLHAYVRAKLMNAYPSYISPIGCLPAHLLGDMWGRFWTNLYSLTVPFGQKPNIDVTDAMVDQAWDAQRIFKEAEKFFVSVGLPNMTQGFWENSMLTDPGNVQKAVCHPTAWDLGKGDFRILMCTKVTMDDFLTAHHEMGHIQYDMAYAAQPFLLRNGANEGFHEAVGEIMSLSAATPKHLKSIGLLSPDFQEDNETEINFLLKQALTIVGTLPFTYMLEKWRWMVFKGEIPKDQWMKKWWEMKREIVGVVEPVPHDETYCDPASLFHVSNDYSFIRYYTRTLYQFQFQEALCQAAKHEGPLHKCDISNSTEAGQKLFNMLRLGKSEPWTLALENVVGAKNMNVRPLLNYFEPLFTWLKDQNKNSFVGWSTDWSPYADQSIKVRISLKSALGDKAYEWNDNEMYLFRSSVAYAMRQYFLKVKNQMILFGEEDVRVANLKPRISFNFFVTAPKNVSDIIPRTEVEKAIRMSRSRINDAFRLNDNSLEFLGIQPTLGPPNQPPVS

In the case of `C=CC1=C(C)c2cc3[nH]c(cc4nc(cc5[nH]c(cc1n2)c(C)c5CCC(=O)O)C(CCC(=O)O)=C4C)c(C)c3C=C` [protoporphyrin IX], the Kd is reported as 39 µM.
